According to article PMC12583704 (Signal Transduction and Targeted Therapy, 2025):

What was measured:
[1] = system: SDHB KD PC12#5F7 cells; test: Western blot of signaling proteins after 24 h treatment; assay type: cell-based, rat
Procedure: Harvested cells treated with dimethyl sulfoxide (DMSO) or the indicated concentrations of compounds were dissolved in 1× SDS sample lysis buffer. […] Finally, the target proteins were visualized via an enhanced chemiluminescence (ECL) western blotting detection kit (Yeasen). The primary antibodies used included FGF3 (PA5-102906) and FGF4 (PA5-115228) from Thermo Fisher Scientific (Waltham, MA, USA); HIF-2α (PA116510) from Invitrogen; SDHB (AB14714), HIF-1α (ab16066), VEGFA (ab214424), and IGF-1R (ab182408) and CD36 (ab133625) from Abcam; and phosphorylated (p-) FGFR1 (52928), FGFR1 (9740), p-SRC (6943), SRC (2109), p-VEGFR2 (3770), VEGFR2 (9698), p-AKT (4060), AKT (4685), p-ERK (4370), ERK (4695), […] (9145), STAT3 (9139), PARP-1 (9532), caspase-3 (9665), cleaved caspase-3 (9664), and β-actin (3700) from Cell Signaling Technology (CST).

[2] = system: c-KIT V559D mutation; design: method as in HQP1351 SJ0003 Protocol; conditions: ref HQP1351 SJ0003 Protocol; cited from earlier work
[3] = 269 CML patients; ref HQP1351 SJ0003 Protocol; cited from earlier work
[4] = system: salmonella typhimurium; design: method as in HQP1351 SJ0003 Protocol; conditions: ref HQP1351 SJ0003 Protocol; cited from earlier work
[5] = target: FGFR3 (Homo sapiens, UniProt P22607); test: In vitro biochemical kinase assay; conditions: kinase activity
[6] = design: method as in HQP1351 SJ0003 Protocol; conditions: ref HQP1351 SJ0003 Protocol; cited from earlier work
[7] = system: MDA-MB-231 triple negative breast cancer xenografts; design: method as in HQP1351 SJ0003 Protocol; conditions: ref HQP1351 SJ0003 Protocol, cited from earlier work
[8] = system: wild-type GIST; test: SJ-0003 preliminary efficacy in wild-type GIST subjects; assay type: in vivo, human; conditions: 6 wild-type GIST subjects, as of August 2021
Procedure: Guangzhou HealthQuest Pharma Inc. HQP1351 […]
as the dosage for adult subjects after discussion between the inves tigator and the sponsor, and no randomization at 30 mg, 40 mg or 50 mg QOD will be performed.
1.6 Risk-benefit and Ethical Assessment […]
no medicine available for treatment. Given that the National Medical Products Administration encourages the inclusion of adolescents in tumor clinical trials as much as possible, after the preliminary adult data (currently there are safety data and preliminary PK data and efficacy data from more than 300 subjects) are available, it is planned to include adolescent wild -type GIST subjects over 12 years old without standard treatment in clinical trials for adult so as to enable these adolescent GIST patients to have the opportunity to enter clinical trials, obtain their clinical data as soon as possible, and solve the problem of no medicine available for these […]
More information about the known and expected benefits and risks of HQP1351 can be found in the relevant section of the Investigator’s Brochure (IB) for HQP1351. The sponsor, CRA, and investigators will conduct the study in accordance with the study protoc ol, the Good […]
(1 picture or pasted object on this page, not shown here)

[9] = system: c-KIT D816H; design: method as in HQP1351 SJ0003 Protocol; conditions: ref HQP1351 SJ0003 Protocol; cited from earlier work
[10] = target: VEGFR1 (Homo sapiens, UniProt P17948); test: In vitro biochemical kinase assay; conditions: kinase activity
[11] = system: GIST human gastrointestinal stromal tumor with different c-KIT mutations; design: method as in HQP1351 SJ0003 Protocol; conditions: ref HQP1351 SJ0003 Protocol, cited from earlier work
[12] = system: SDH-deficient GISTs; test: Phase 1 study: antitumor efficacy per RECIST v1.1 in SDH-deficient GIST; assay type: in vivo, human; design: key to Best response: PD, progressive disease; PR, partial response; SD, stable disease; conditions: for Best response: previous Imatinib
Procedure: AEs were evaluated at each follow-up visit: on Days 1, 8, 15, and 22 during Cycles 1 and 2; and on Days 1 and 15 in Cycle 3 and all subsequent cycles, up to 30 days after the final dose. All AEs were graded according to the National Cancer Institute Common Terminology Criteria for Adverse Events v4.03. Clinical laboratory investigations for routine blood examinations and serum chemistry parameters were performed during every cycle (on Day 1), during Cycles 1 and 2 (on Days 8, 15, and 22), and 30 days after the last dose of treatment. Urinalysis, coagulation, cardiac troponin I/T, lipase, amylase, and electrocardiographic evaluations were conducted at baseline; during Cycles 1 and 2 (on Days 1 and 15); during Cycles 3, 5, 7, and 9; every three cycles after Cycle 9 (on Day 1); and 14 days after the last dose of treatment. All patients underwent tumor imaging for response assessment via computed tomography or magnetic resonance imaging at screening and every two cycles (8 weeks) until progression or discontinuation. Target and nontarget lesions were assessed per the Response Evaluation Criteria in Solid Tumors version 1.1 (RECIST v1.1).
The secondary endpoints included efficacy assessments (overall response rate [ORR], clinical benefit rate [CBR], PFS per RECIST v1.1 and overall survival [OS]) and pharmacokinetic properties. […] The ORR was defined as the proportion of patients with a confirmed CR or PR of any duration. PFS was defined as the time from the start of treatment to the date of first documented disease progression or death due to any cause, whichever occurred first. OS was defined as the time from the start of treatment until the date of death.
Antitumor activity was evaluated in patients from the GIST population (including those with SDH-deficient and non-SDH-deficient disease) who had undergone at least one postbaseline disease assessment. […] All the statistical analyses were performed via SAS (v9.3 or higher; SAS Institute, Cary, NC).

Sequence of VEGFR1 (P17948 27-1338): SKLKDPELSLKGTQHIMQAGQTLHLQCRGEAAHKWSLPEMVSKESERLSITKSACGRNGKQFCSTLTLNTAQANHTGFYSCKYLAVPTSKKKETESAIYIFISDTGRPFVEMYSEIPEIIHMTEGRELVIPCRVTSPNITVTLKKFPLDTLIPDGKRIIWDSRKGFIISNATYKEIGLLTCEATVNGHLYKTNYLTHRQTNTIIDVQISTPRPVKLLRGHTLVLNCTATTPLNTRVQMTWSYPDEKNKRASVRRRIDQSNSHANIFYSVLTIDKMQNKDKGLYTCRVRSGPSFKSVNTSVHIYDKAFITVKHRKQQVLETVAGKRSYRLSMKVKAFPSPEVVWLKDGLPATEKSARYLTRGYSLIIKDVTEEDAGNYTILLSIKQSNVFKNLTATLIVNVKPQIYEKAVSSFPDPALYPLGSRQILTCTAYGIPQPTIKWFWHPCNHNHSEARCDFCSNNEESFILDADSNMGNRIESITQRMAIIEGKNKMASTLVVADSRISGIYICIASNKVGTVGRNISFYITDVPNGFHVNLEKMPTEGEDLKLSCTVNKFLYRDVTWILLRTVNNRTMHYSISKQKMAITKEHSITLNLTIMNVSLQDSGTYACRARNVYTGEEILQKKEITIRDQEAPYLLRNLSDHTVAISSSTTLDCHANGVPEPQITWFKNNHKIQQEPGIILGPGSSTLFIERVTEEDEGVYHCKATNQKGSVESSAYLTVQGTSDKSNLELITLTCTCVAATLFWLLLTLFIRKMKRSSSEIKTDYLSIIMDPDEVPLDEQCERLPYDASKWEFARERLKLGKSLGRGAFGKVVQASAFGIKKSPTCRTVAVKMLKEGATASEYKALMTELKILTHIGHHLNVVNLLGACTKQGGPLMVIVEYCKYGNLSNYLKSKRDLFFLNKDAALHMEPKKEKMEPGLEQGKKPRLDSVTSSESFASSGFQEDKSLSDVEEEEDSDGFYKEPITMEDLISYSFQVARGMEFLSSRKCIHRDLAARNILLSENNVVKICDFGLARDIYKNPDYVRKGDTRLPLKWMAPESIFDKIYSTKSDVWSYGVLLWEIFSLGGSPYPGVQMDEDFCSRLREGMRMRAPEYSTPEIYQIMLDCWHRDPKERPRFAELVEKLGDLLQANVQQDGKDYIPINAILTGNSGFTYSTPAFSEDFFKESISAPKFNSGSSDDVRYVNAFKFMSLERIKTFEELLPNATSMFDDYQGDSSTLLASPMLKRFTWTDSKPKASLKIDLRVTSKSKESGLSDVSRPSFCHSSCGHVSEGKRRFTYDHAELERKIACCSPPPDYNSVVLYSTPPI
Sequence of FGFR3 (P22607 23-806): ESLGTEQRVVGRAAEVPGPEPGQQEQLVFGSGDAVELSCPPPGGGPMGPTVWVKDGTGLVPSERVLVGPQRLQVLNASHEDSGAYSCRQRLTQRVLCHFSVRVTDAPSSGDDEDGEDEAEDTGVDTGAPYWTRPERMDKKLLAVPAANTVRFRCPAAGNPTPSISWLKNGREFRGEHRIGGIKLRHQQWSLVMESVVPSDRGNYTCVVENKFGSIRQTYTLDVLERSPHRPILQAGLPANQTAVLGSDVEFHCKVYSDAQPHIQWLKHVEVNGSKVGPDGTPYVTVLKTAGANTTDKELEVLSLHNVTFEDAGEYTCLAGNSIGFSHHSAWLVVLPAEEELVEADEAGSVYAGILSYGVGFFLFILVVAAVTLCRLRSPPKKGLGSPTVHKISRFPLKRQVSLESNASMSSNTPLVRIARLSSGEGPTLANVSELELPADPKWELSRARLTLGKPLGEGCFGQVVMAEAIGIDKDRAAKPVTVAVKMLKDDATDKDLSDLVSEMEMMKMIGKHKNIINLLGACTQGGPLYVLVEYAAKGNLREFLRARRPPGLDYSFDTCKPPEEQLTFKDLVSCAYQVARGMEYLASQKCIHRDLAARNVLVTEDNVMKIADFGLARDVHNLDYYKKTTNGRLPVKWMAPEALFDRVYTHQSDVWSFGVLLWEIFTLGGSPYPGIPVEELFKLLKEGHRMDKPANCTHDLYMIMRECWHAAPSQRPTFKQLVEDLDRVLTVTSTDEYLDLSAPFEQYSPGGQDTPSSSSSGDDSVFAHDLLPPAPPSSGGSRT

Cc1ccc(C(=O)Nc2ccc(CN3CCN(C)CC3)c(C(F)(F)F)c2)cc1C#Cc1cnc2[nH]ncc2c1 [Olverembatinib, 3-[(1H-pyrazolo[3,4-b]pyridin-5-yl)ethynyl]-4-methyl-N-{4-[(4-methylpiperazin-1-yl)methyl]-3-(trifluoromethyl)phenyl]benzamide]
cleavage of caspase-3 and poly (ADP-ribose) polymerase 1 [1]: Increased cleavage
HIF-1α, HIF-2α, VEGFA, FGFR1, IGF-1R, phosphorylated FGFR1, AKT and ERK1/2 ([1]; 24 hours): dose-dependently inhibited
inhibition rate [2]: > 90%
patients who experienced SAEs [3]: 26%
patients who withdrew from the study due to AEs [3]: 10%
subjects with at least one treatment-emergent adverse event (TEAE) [3]: Approximately 99%
mutagenicity [4]: no mutagenicity
IC50 [5]: < 0.6 nM
unchanged drug oxidized NADPH-dependently [6]: Less than 20%
T/C (%) ([7]; 20 mg/kg, P<0.01): 34.0%
minimal effective dose [7]: 20 mg/kg
subjects with PD on Day 52 of medication [8]: 1 subject
subjects with SD followed up for more than 11 cycles, up to 31 cycles [8]: 3 subjects
subjects with SD when followed up to Cycle 3 [8]: 1 subject
subjects with PR ([8]; PR in Cycle 9, remained PR to Cycle 13): 1 subject
inhibition rate [9]: 20%-40%
IC50 [10]: < 0.6 nM
T/C (%) after the end of dosing ([11]; 20 mg/kg qod): 30.8%-69.8%
weight loss ([11]; 60 mg/kg qod 3 wks, in some tests): about 10%
minimal effective dose ([11]; every other days (qod)): 20 mg/kg
objective response rate (confirmed PR per RECIST v1.1) ([12]; 6 of 26 evaluable patients, 95% CI, 9–43.7): 23.1%
clinical benefit rate ([12]; CR or PR or SD for at least 6 months, 95% CI, 65.1–95.6): 84.6%
Best response ([12]; Subject ID 01039, 40 mg, Sunitinib): PR
Best response ([12]; Subject ID 01040, 50 mg): SD
Best response ([12]; Subject ID 01044, 40 mg, Sunitinib, Regorafenib): PR
Best response ([12]; Subject ID 01050, 40 mg, Sunitinib, Regorafenib, Ripretinib): SD
Best response ([12]; Subject ID 01062, 40 mg, Ripretinib): SD
Best response ([12]; Subject ID 05011, 40 mg, Sunitinib, Monoclonal antibody targeted PD-1): PR
Best response ([12]; Subject ID 07005, 30 mg, Famitinib, Sunitinib): SD
patients who did not progress during the first 6 months of treatment ([12]; additional 16 of 26 patients): 61.5%
OS rate ([12]; at the time of data cutoff): 100%
